Data on 11 compounds can be found in US20080167332A1, “Novel Compounds 243” (priority 2006, published 2008).

Counter-ions that a name gives are not always drawn.

One test concerns the target T1, recombinant human CCR1 (Homo sapiens, UniProt P32246).
T1 construct: expressed in transfected cells; membranes
T1 sequence (P32246 1-355): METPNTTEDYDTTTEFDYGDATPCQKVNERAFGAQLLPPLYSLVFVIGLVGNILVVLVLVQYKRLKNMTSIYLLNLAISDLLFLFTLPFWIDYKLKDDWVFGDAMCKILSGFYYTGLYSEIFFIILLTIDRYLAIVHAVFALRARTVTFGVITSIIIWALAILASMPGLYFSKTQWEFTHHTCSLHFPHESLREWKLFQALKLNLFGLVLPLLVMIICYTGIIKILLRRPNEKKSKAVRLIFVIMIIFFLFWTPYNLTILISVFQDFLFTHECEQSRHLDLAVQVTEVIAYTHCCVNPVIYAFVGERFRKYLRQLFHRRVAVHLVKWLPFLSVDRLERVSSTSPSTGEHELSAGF
The test is described as follows: Human CCR1 binding assay ([125I] MIP-1α displacement). As to conditions: displacement of 33 pM [125I] MIP-1α, HEK-CCR1 membranes; read-out: Result from assay: IC50. Here is the method: HEK293 cells, from ECACC, stably expressing recombinant human CCR1 (HEK-CCR1) were used to prepare cell membranes containing CCR1. The membranes were stored at −70° C. The concentration of membranes of each batch was adjusted to 10% specific binding of 33 pM [^125I] MIP-1α.
100 μL of HEK-CCR1 membranes diluted in assay buffer pH 7.4 ((137 mM NaCl (Merck, Cat No 1.06404), 5.7 mM Glucose (Sigma, Cat No G5400), 2.7 mM KCl (Sigma, Cat No P-9333), 0.36 mM NaH2PO4×H2O (Merck, Cat No 1.06346), 10 mM HEPES (Sigma, Cat No H3375), 0.1% (w/v) Gelatine (Sigma, Cat No G2625)) with the addition of 17500 units/L Bacitracin (Sigma, Cat No B1025) were added to each well of the 96 well filter plate (0.45 μm opaque Millipore cat no MHVB N4550). 12 μL of compound in assay buffer, containing 10% DMSO, was added to give final compound concentrations of 1×10^−5.5−I×10^−9.5 M. 12 μL cold human recombinant MIP-1α (270-LD-050, R&D Systems, Oxford, UK), 10 nM final concentration in assay buffer supplemented with 10% DMSO, was included in certain wells (without compound) as non-specific binding control (NSB). 12 μL assay buffer with 10% DMSO was added to certain wells (without compound) to detect maximal binding (B0).
12 μL [^125I] MIP-1α, diluted in assay buffer to a final concentration in the wells of 33 pM, was added to all wells. The plates with lid were then incubated for 1.5 h at room temperature. After incubation the wells were emptied by vacuum filtration (MultiScreen Resist Vacuum Manifold system, Millipore) and washed once with 200 μL assay buffer. After the wash, all wells received an addition of […] of scintillation fluid (OptiPhase “Supermix”, Wallac Oy, Turko, Finland). Bound [^125I] MIP-1α was measured using a Wallac Trilux 1450 MicroBeta counter. Window settings: Low 5-High 1020, 1-minute counting/well.
The following equation was used to calculate percent displacement.
Percent displacement=1−((cpm test−cpm NSB)/(cpm B0−cpm NSB)) where:
cpm test=average cpm in wells with membranes and compound and [^125I] MIP-1α; NSB=average cpm in the wells with membranes and MIP-1α and [^125I] MIP-1α (non-specific binding); B0=average cpm in wells with membranes and assay buffer and [^125I] MIP-1α (maximum binding).
The molar concentration of compound producing 50% displacement (IC50) was derived using the Excel-based program XLfit (version 2.0.9) to fit data to a 4-parameter logistics function.
`CN(C)C(=O)c1cc(Cl)c(OC(C)(C)C(=O)O)cc1OC[C@@H](O)CN1CCC2(CC1)Cc1cc(Cl)ccc1O2` [Example 19, 2-{2-Chloro-5-{[(2S)-3-(5-chloro-1′H, 3H-spiro[l-benzofuran-2,4′-piperidin]-1′-yl)-2-hydroxypropyl]oxy}-4-[(dimethylamino)carbonyl]-phenoxy}-2-methylpropanoic acid]: the IC50 turned out to be 1.6 nM.

Take `O=C(O)COc1cc(OC[C@@H](O)CN2CCC3(CC2)Cc2cc(Cl)ccc2O3)c(C(=O)N2CC[C@H](O)C2)cc1Cl` [Example 20, (2-Chloro-5-{[(2S)-3-(5-chloro-1′H,3H-spiro[1-benzofuran-2,4′-piperidin]-1′-yl)-2-hydroxypropyl]oxy}-4-{[(3S)-3-hydroxypyrrolidin-1-yl]carbonyl}phenoxy)acetic acid]: the IC50 turned out to be 2.02 nM.

In the case of `CNC(=O)c1cc(Cl)c(OCC(=O)O)cc1OC[C@@H](O)CN1CCC2(CC1)Cc1cc(Cl)ccc1O2` [Example 4], the IC50 is 20.2 nM.

For the compound `CNC(=O)c1cc(Cl)c(OC(C)(C)C(=O)O)cc1OCC(O)CN1CCC2(CC1)Cc1cc(Cl)ccc1O2` (racemic) [Example 21, 2-{2-Chloro-5-{3-(5-chloro-1′H 3H-spiro[1-benzofuran-2,4′-piperidin]-1′-yl)-2-hydroxypropyl]oxy}-4-dimethylamino)carbonyl]-phenoxy}-2-methyl-propanoic acid trifluoracetate], the IC50 is 2.42 nM.

As to `CNC(=O)c1cc(Cl)c(OC(C)(C)C(=O)O)cc1OC[C@H](O)CN1CCC2(CC1)Cc1cc(Cl)ccc1O2` [Example 6, 2-{2-Chloro-5-{[(2R)-3-(5-chloro-1′H,3H-spiro[1-benzofuran-2,4′-piperidin]-1′-yl)-2-hydroxypropyl]oxy}-4-[(methylamino)carbonyl]phenoxy}-2-methylpropanoic acid], the IC50 was determined as 11 nM.

As to `CC(=O)Nc1ccc(OCC(=O)O)cc1OC[C@@H](O)CN1CCC2(CC1)Cc1cc(Cl)ccc1O2` [Example 2, (4-(acetylamino)-3-{[(2S)-3-(5-chloro-1′H,3H-spiro[1-benzofuran-2,4′-piperidin]-1′-yl)-2-hydroxypropyl]oxy}phenoxy)acetic acid], the IC50 was 10 nM.

As for `CNC(=O)c1cc(Cl)c(OC(C)(C)C(=O)O)cc1OC[C@@H](O)CN1CCC2(CC1)Cc1cc(Cl)ccc1O2` [Example 5, 2-[2-Chloro-5-{[(2S)-3-(5-chloro-1′H,3H-spiro[l-benzofuran-2,4′-piperidin]-1′-yl)-2-hydroxypropyl]oxy}-4-[(methylamino)carbonyl]-phenoxy}-2-methylpropanoic acid TFA], the IC50 is 1.06 nM.

For `CN(C)C(=O)c1cc(Cl)c(OCC(=O)O)cc1OC[C@@H](O)CN1CCC2(CC1)Cc1cc(Cl)ccc1O2` [Example 18, {2-Chloro-5-{[(2S)-3-(5-chloro-1′H,3H-spirol[1-benzofuran-2,4′-piperidin]-1′-yl)-2-hydroxypropyl]oxy}-4-[(dimethylamino)carbonyl]phenoxy}acetic acid], the IC50 was found to be 11.4 nM.

With `CNC(=O)c1cc(Cl)c(OC(C)(C)C(=O)O)cc1OC[C@@H](O)CN1CCC2(CC1)Cc1cc(Cl)cc(C(C)(C)C)c1O2` [Example 22, 2-[5-{[(2S)-3-(7-tert-Butyl-5-chloro-1′H, 3H-spiro[1-benzofuran-2,4′-piperidin]-1′-yl)-2-hydroxypropyl]oxy}-2-chloro-4-(methylcarbamoyl)phenoxy]-2-methylpropanoic acid], the IC50 came to 71.7 nM.

Staying with this test, now noted: displacement of 33 pM [125I] MIP-1α, HEK-CCR1 membranes; read-out: Result from assay: pIC50 (converted).
As to `CC(=O)Nc1cc(Cl)c(OCC(=O)O)cc1OC[C@@H](O)CN1CCC2(CC1)Cc1cc(F)ccc1O2` [Example 3, (4-(acetylamino)-2-chloro-5-{[(2S)-3-(5-fluoro-1′H,3H-spiro[1-benzofuran-2,4′-piperidin]-1′-yl)-2-hydroxypropyl]oxy}phenoxy)acetic acid, hydrochloride], the IC50 was 2.24 nM.

As to `CC(=O)Nc1cc(Cl)c(OCC(=O)O)cc1OC[C@@H](O)CN1CCC2(CC1)Cc1cc(Cl)ccc1O2` [Example 1, (4-(acetylamino)-2-chloro-5-{[(2S)-3-(5-chloro-1′H,3H-spiro[1-benzofuran-2,4′-piperidin]-1′-yl)-2-hydroxypropyl]oxy}phenoxy)acetic acid], the IC50 was 0.562 nM.

The target of the next test is T2, human ether-a-go-go-related-gene (hERG)-encoded potassium channel (Homo sapiens, UniProt Q12809).
T2 construct: expressed in transfected cells; host or cells: HEK 293 cell membranes
T2 sequence (Q12809 whole entry): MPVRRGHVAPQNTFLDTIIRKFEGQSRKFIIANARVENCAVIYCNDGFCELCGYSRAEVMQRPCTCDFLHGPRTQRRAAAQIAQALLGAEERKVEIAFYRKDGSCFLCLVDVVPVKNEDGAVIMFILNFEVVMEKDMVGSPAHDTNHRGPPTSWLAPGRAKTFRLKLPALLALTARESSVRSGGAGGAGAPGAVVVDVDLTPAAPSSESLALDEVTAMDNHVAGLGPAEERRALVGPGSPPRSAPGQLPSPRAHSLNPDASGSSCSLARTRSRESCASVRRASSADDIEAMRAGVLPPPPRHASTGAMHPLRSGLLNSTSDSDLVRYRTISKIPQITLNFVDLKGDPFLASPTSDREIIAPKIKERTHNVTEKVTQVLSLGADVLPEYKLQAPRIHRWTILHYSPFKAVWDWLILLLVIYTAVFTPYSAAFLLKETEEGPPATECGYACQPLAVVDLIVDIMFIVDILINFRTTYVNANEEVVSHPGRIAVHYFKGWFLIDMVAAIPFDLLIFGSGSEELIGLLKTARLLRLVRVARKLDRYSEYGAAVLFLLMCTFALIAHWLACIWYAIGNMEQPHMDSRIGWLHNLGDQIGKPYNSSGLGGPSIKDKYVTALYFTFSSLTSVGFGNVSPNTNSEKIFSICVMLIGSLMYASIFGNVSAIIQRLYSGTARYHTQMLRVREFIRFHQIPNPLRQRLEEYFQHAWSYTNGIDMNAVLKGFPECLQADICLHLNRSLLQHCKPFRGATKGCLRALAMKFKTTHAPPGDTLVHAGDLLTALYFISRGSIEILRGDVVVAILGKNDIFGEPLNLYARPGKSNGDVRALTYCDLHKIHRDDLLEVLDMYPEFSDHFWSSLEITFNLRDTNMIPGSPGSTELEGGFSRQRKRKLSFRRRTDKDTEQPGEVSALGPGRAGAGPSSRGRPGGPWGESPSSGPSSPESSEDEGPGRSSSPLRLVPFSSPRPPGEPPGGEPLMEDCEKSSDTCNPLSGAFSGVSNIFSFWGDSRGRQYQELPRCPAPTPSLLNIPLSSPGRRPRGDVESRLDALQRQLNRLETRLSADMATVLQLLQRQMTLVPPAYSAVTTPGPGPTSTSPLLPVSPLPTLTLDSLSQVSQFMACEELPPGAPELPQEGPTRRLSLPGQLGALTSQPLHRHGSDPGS
Nature of the test: hERG-encoded potassium channel binding assay. As to conditions: HEK 293 cell membranes expressing the IKR channel, radioligand binding; read-out: hERG binding concentration. Here is the method:
This assay, which is described in full detail in example 2, WO2005037052, determines the ability of a test compound to bind to the human ether-a-go-go-related-gene (hERG)-encoded potassium channel. The assay comprises the following steps: a) incubation of HEK 293 cell membranes expressing the IKR channel in the presence of radioligand 3,7-bis[2-(4-nitro[3,5-^3H]phenyl)ethyl]-3,7-diazabicyclo[3.3.1]nonane, in the presence or absence of a test compound; b) quantitation of specifically bound labelled compound in the presence or absence of a test compound; c) calculation of the inhibition of labelled compound binding by the test compound. Similar protocols to determine affinity for the human ether-a-go-go-related-gene (hERG)-encoded potassium channel have been described by Finlayson, K. et al. [Eur. J. Pharmacol. 2001, 412, 203 and Eur. J. Pharmacol. 2001, 430, 147].
Turning to `CC(=O)Nc1cc(Cl)c(OCC(=O)O)cc1OC[C@@H](O)CN1CCC2(CC1)Cc1cc(Cl)ccc1O2` [Example 1, (4-(acetylamino)-2-chloro-5-{[(2S)-3-(5-chloro-1′H,3H-spiro[1-benzofuran-2,4′-piperidin]-1′-yl)-2-hydroxypropyl]oxy}phenoxy)acetic acid], the IC50 was above 30000 nM.
